Here are results for seven molecules from PubChem BioAssay (NCI).

Where “and” joins values, the source holds several entries; their conditions need not be identical. Identical values can stand only once.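 Grown in 96-well plates, cells were treated for 48 hours with each compound at five concentrations. Insufficient inhibition: endpoint recorded as highest concentration tested. The concentration for 50% growth inhibition is given as GI50. TGI: concentration producing complete growth inhibition.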 Bounds are passed on as bounds.

Test systems include COLO 205 colon; HCC-2998 colon; HCT-116 colon; HL-60(TB) leukemia; HS 578T breast; IGROV1 ovarian; MALME-3M melanoma; MDA-MB-231 breast; OVCAR-8 ovarian; SK-MEL-2 melanoma.
What all share (experiment): NCI anticancer screen, dose series, 48 h

`CCCS(=O)(=O)Nc1ccc(F)c(C(=O)c2c[nH]c3ncc(-c4ccc(Cl)cc4)cc23)c1F`: the GI50 is 0.0487 µM and 0.0423 µM with COLO 205 colon; 5.59 µM and 10 µM in the assay on HCC-2998 colon; 4.46 µM and 5.81 µM in the assay on HCT-116 colon; 3.64 µM and > 10 µM in the assay on HL-60(TB) leukemia; 1.3 µM and 1.96 µM in the assay on HS 578T breast; 3.52 µM and 3.63 µM with IGROV1 ovarian. The GI50 was 0.0161 µM and 0.0331 µM in the assay with MALME-3M melanoma; 3.98 µM and 5.16 µM in the assay with MDA-MB-231 breast; 6.16 µM and > 8.65 µM with OVCAR-8 ovarian; 4.11 µM and 3.65 µM with SK-MEL-2 melanoma. Besides, the TGI with COLO 205 colon was 11.2 µM and > 5.32 µM; in the assay with HCC-2998 colon, 17.9 µM and > 10 µM; with HCT-116 colon, 16.9 µM and > 10 µM; in the assay on HL-60(TB) leukemia, 12.2 µM and > 10 µM; in the assay on HS 578T breast, 6.44 µM and 9.94 µM; with IGROV1 ovarian, 14.4 µM and > 10 µM. The TGI in the assay on MALME-3M melanoma was 0.0772 µM; in the assay on MDA-MB-231 breast it was 18.9 µM and > 10 µM; in the assay on OVCAR-8 ovarian, 43.6 µM and > 10 µM; in the assay on SK-MEL-2 melanoma, 14.7 µM and > 10 µM.

`CN1/C(=C\C(I)C(I)C2=[N+](C)c3ccccc3C2(C)C)C(C)(C)c2ccccc21` (stereo not drawn): the GI50 in the assay on COLO 205 colon was 0.21 µM; in the assay on HCC-2998 colon it was 0.371 µM; in the assay with HCT-116 colon, 0.0852 µM; in the assay with HL-60(TB) leukemia, 0.178 µM; with HS 578T breast it was 0.992 µM; with IGROV1 ovarian, 0.464 µM. For the same molecule, the GI50 was 0.277 µM with MALME-3M melanoma, 0.773 µM with MDA-MB-231 breast, 0.303 µM with OVCAR-8 ovarian and 0.39 µM with SK-MEL-2 melanoma. The TGI with COLO 205 colon was 0.733 µM; in the assay on HCC-2998 colon, 16.9 µM; in the assay with HCT-116 colon, 11.6 µM; in the assay on HL-60(TB) leukemia, 0.651 µM; in the assay with HS 578T breast, 39.2 µM; in the assay on IGROV1 ovarian, 42.5 µM. For the same molecule, the TGI is 14 µM in the assay with MALME-3M melanoma, 20.9 µM with MDA-MB-231 breast, 13.9 µM in the assay with OVCAR-8 ovarian and 2.75 µM in the assay on SK-MEL-2 melanoma.

Take `COc1ccc(-c2ccc3c(NC(=O)C4CC4)n[nH]c3n2)cc1`: the GI50 in the assay on COLO 205 colon is > 25 µM; in the assay with HCC-2998 colon it was > 25 µM; in the assay on HCT-116 colon, > 25 µM; in the assay on HL-60(TB) leukemia, > 25 µM; in the assay with HS 578T breast, 23.6 µM; in the assay with IGROV1 ovarian, > 25 µM. The GI50 in the assay with MALME-3M melanoma was > 25 µM; with MDA-MB-231 breast, > 25 µM; in the assay on OVCAR-8 ovarian, 11.7 µM; with SK-MEL-2 melanoma, > 25 µM. In addition, the TGI in the assay with COLO 205 colon, in the assay with HCC-2998 colon, in the assay with HCT-116 colon, in the assay on HL-60(TB) leukemia, with HS 578T breast and in the assay with IGROV1 ovarian was > 25 µM each time. For the same molecule, the TGI with MALME-3M melanoma, in the assay with MDA-MB-231 breast, in the assay with OVCAR-8 ovarian and in the assay with SK-MEL-2 melanoma was > 25 µM each time.

For `CC(=O)OCC1OC(OC2C(COC(C)=O)OC(OCCC[S-])C(OC(C)=O)C2OC(C)=O)C(OC(C)=O)C(OC(C)=O)C1OC(C)=O.[Au+].c1ccc(CN2[CH-]N(Cc3ccccc3)C(c3ccccc3)=C2c2ccccc2)cc1` (stereo not drawn), the GI50 with COLO 205 colon is 2.68 µM; in the assay on HCC-2998 colon, 3.49 µM; in the assay on HCT-116 colon, 2.72 µM; with HL-60(TB) leukemia, 2.49 µM; with HS 578T breast, 9.16 µM; in the assay with IGROV1 ovarian, 3.06 µM. For the same molecule, the GI50 was 2.19 µM in the assay with MALME-3M melanoma, 2.38 µM in the assay with MDA-MB-231 breast, 3.75 µM in the assay with OVCAR-8 ovarian and 2.99 µM in the assay with SK-MEL-2 melanoma. In addition, the TGI in the assay with COLO 205 colon turned out to be 7.61 µM; with HCC-2998 colon, 15.4 µM; in the assay with HCT-116 colon, 10.9 µM; in the assay on HL-60(TB) leukemia, 6.43 µM; with HS 578T breast, 87.7 µM; with IGROV1 ovarian, 16 µM. Further, the TGI in the assay with MALME-3M melanoma was 6.56 µM; in the assay on MDA-MB-231 breast, 5.93 µM; in the assay on OVCAR-8 ovarian it was > 100 µM; in the assay with SK-MEL-2 melanoma, 8.92 µM.

`CN(C)c1ccc(/C=C2\C[C@H]3[C@@H]4CC=C5C[C@@H](N6CCCC6)CC[C@]5(C)[C@H]4CC[C@]3(C)[C@H]2O)cc1`: the TGI with COLO 205 colon was 4.12 µM; in the assay with HCC-2998 colon, 1.86 µM; with HCT-116 colon, 1.7 µM and 4.67 µM; in the assay on HL-60(TB) leukemia, 2.31 µM and 4.86 µM; in the assay on HS 578T breast, 2.5 µM and 7.93 µM; in the assay on IGROV1 ovarian, 2 µM and 8.53 µM. Further, the TGI in the assay with MALME-3M melanoma is 1.69 µM and 8.35 µM; in the assay with MDA-MB-231 breast, 2.16 µM and 4.46 µM; in the assay on OVCAR-8 ovarian, 1.75 µM and 5.47 µM; in the assay on SK-MEL-2 melanoma, 2.35 µM and 3.89 µM. In addition, the GI50 in the assay with HCT-116 colon is 2.1 µM; in the assay with HL-60(TB) leukemia, 2.3 µM; in the assay with HS 578T breast, 2.83 µM; with IGROV1 ovarian, 3.92 µM; with MALME-3M melanoma, 2.55 µM; with MDA-MB-231 breast, 2.23 µM. In addition, the results for the GI50 in the assay on OVCAR-8 ovarian and with SK-MEL-2 melanoma were 2.87 µM and 2 µM, respectively.

Regarding `Cc1ccc2c(c1)C(=O)c1c-2n(CCCN)c(=O)c2cc([N+](=O)[O-])ccc12`, the GI50 is 0.178 µM with COLO 205 colon; 0.531 µM in the assay with HCC-2998 colon; 0.166 µM with HCT-116 colon; 0.0285 µM in the assay with HL-60(TB) leukemia; 1.54 µM with HS 578T breast; 0.176 µM in the assay on IGROV1 ovarian. The GI50 with MALME-3M melanoma is 0.752 µM; in the assay on MDA-MB-231 breast, 0.293 µM; with OVCAR-8 ovarian it was 0.387 µM; in the assay with SK-MEL-2 melanoma, 1.37 µM. The TGI in the assay on COLO 205 colon amounted to 0.913 µM; with HCC-2998 colon, 1.17 µM; in the assay on HCT-116 colon it was 0.718 µM; in the assay on HL-60(TB) leukemia, 0.327 µM; with HS 578T breast it was 3.44 µM; in the assay on IGROV1 ovarian, 0.985 µM. Moreover, the TGI with MALME-3M melanoma came to 1.71 µM; in the assay on MDA-MB-231 breast, 0.827 µM; in the assay with OVCAR-8 ovarian, 1.33 µM; in the assay on SK-MEL-2 melanoma, 4.15 µM.

`Nc1ccc(-c2nc3ccc4[nH]ncc4c3c3c2CCCC3)cc1F`: the GI50 was 1.42 µM in the assay on COLO 205 colon; 3.04 µM with HCC-2998 colon; 0.6 µM with HCT-116 colon; 1.24 µM in the assay with HL-60(TB) leukemia; 1.05 µM with HS 578T breast; 0.407 µM in the assay on IGROV1 ovarian. Further, the GI50 in the assay on MALME-3M melanoma is 1.74 µM; in the assay with MDA-MB-231 breast it was 1.71 µM; in the assay with OVCAR-8 ovarian, 1.57 µM; in the assay with SK-MEL-2 melanoma it was 1.27 µM. For the same molecule, the TGI in the assay with COLO 205 colon worked out at 6.77 µM; in the assay on HCC-2998 colon, 12.3 µM; in the assay on HCT-116 colon it was 5.99 µM; in the assay with HL-60(TB) leukemia, 3.42 µM; in the assay on HS 578T breast, 3.91 µM; in the assay on IGROV1 ovarian it was 11.2 µM. Also, the TGI in the assay on MALME-3M melanoma turned out to be 6.98 µM; with MDA-MB-231 breast it was 30.5 µM; in the assay with OVCAR-8 ovarian, 21.6 µM; with SK-MEL-2 melanoma, 6.19 µM.
